Assay results: US20240207414A1, “DISULFIDE-BASED PRODRUG COMPOUND” (Ludwig-Maximilians-Universitat Munchen, priority 2021, published 2024)

Key:
A549 cells = experiment: Cellular reduction assay P12-P16 (FIG. 6); type: cell-based, human; details: 10 μM or 40 μM, 1% vol DMSO, cells under ordinary conditions
Protocol: Assay Conditions: A549 cells were cultured under standard conditions (Gao, L. et al. Cell Chemical Biology 2021, 28, 1-14. https://doi.org/10.1016/j.chembiol.2020.11.007), left to adhere for 24 h, then compounds were added to 10 μM or 40 μM with 1% vol DMSO. Fluorescence timecourse measurements were acquired as in the chemoreductant assay, with all conditions in triplicates.
Experimental Results and Discussion: F(t) is the raw fluorescence intensity signal increase in arbitrary units with the same detection settings the probes releasing the same cargo. […] This trend is irrespective of the applied concentration in cells and cellular increase is constant over time. This indicates, that P13-P16 are activated more selectively by specific enzymatic cascades (as e.g. Trx/TrxR), whereas P12 may be activated more unspecifically. Thus, compounds of the invention either have the possibility of being useful by giving selective cargo release in pathologically growing cells or cells under abnormal conditions (P13-P16), or offer novel opportunities of cellular delivery of appended cargoes with optimal response kinetics (P12).

[1] = tested on: 4T1 Balb/c mouse breast cancer cell line, orthotopic tumor; experiment: In vivo mouse tumor model assay P10
Text: Assay Conditions and Data Representation: Immunocompetent wildtype Balb/c mice were inoculated with 4T1 Balb/c mouse breast cancer cell line orthotopically in the mammary fat pad (2×10^5 cells) and tumor growth was monitored by caliper measurement. The day when all tumors had reached ca. 150 mm^3 was defined as Day 0; on this day the mice were randomised by tumor size into groups of minimum size 5 animals (mean tumor size ca. 200 mm^3), and treated. Treatments were chosen from 0.9% NaCl (“untreated”), the vascular disrupting agent combretastatin A-4 phosphate (CA4P) at 30 mg/kg administered in 100 μL NaCl (“VDA”), compound of the invention P10 at 4 mg/kg administered in 30 μL DMSO (“P10”), or a combination regime involving treatment with VDA and then 6 hours later with P10 (“VDA+P10”). All treatments were administered intraperitoneally (i.p.). CA4P was re-applied to groups “VDA” and […] once at day 7; no P10 treatment was re-applied to either “P10” or “VDA+P10” groups. Tumor volumes were measured as assay readout.

HeLa cells = experiment: In vitro cell viability assay P10 (resazurin); type: cell-based; details: Homo sapiens, 48 h, read-out: IC50 antiproliferation / cell viability
Protocol: Assay Conditions: Cells were cultured under standard conditions (Gao, L. et al. Cell Chemical Biology 2021, 28, 1-14. https://doi.org/10.1016/j.chembiol.2020.11.007), left to adhere for 24 h, then P10 was added from DMSO stock solution and adjusted to 1% vol DMSO. Cells were incubated under standard conditions for 48 h, then 0.20 volume equivalents of a solution of resazurin in PBS (0.15 mg/mL) were added and incubated for 3 hours, then fluorescence (ex 544 nm, em 590 nm) was detected on a fluorescence platereader. Cell viability (%) is calculated relative to a control experiment with no P10 added, from the fluorescence values.

| SMILES | cargo release / activation inside cells (raw fluorescence F(t)) (A549 cells) | tumor growth (tumor volume), combination with VDA ([1]; CA4P (VDA) 30 mg/kg i.p., then 6 hours later P10 4 mg/kg i.p.) | primary tumor progression (tumor volume) ([1]; single treatment 4 mg/kg i.p., Balb/c mice, 4T1 tumor) | IC50 (HeLa cells) [nM] |
| --- | --- | --- | --- | --- |
| COc1ccc2c(c1)Oc1cc(OC(=O)N3CCN[C@@H]4CSSC[C@H]43)ccc1C21OC(=O)c2ccccc21 (mixture of isomers) [Compound P12, 3′-methoxy-3-oxo-3H-spiro[isobenzofuran-1,9′-xanthen]-6′-yl-trans-hexahydro-[1,2]dithiino[4,5-b]pyrazine-1(2H)-carboxylate] | substantially releases its cargo inside cells cultured under ordinary conditions | – | – | – |
| O=C(c1cc2cc(OCCCN3CCC3)ccc2[nH]1)N1C[C@@H](CCl)c2c1cc(OC(=O)N1CCC[C@@H]3CSSC[C@@H]31)c1ccccc21 (racemic) [Compound P10, (S)-3-(5-(3-(azetidin-1-yl)propoxy)-1H-indole-2-carbonyl)-1-(chloromethyl)-2,3-dihydro-1H-benzo[e]indol-5-yl (cis)-hexahydro-[1,2]dithiino[4,5-b]pyridine-1(2H)-carboxylate] | – | still more significantly slows tumor growth | significantly slows primary tumor progression | ~200 |
